{
  "source": "patent US5616606A",
  "about": "“Oligopeptide antiretroviral agents” (priority 1995, dated 1997)",
  "key": {"poly(dA-dT)": {"tested_on": "poly(dA-dT)", "test": "ethidium displacement assay, poly(dA-dT)", "details": "relative to ethidium 9.5 × 10^6 M^-1, average of repeat measurements"}, "[1]": {"tested_on": "T4 lymphocytes (CEM cell line)", "test": "NCI anti-HIV screen, toxicity control in uninfected cells", "format": "cell-based"}, "HIV-1": {"tested_on": "HIV-1", "details": "for INFECTED RESPONSE % of Control: Table VI"}, "2.2.15 cells": {"tested_on": "2.2.15 cells", "test": "toxicity analysis, neutral red dye uptake in 2.2.15 cells", "details": "triplicate, ± standard deviation"}, "HBV": {"tested_on": "HBV", "test": "inhibition of HBV DNA replication in 2.2.15 cell cultures", "format": "cell-based", "details": "single well, dihydrochloride; for INT[…] DNA MONO.: 24 hours following the 9th day of treatment"}, "[2]": {"test": "solubility in DMSO, MeOH, H2O", "format": "physicochemical", "details": "H2O"}, "[3]": {"details": "HIV-1 infected CEM cells, 6 days, XTT, Tables VI-X"}},
  "note": "pEC50: −log10 of the molar value. “And” between values parts separate entries of the source, which are not always exact repeats. Equal entries are not always repeated. Where two headings read alike, the source gives them in different places.",
  "data": [
    {"compound": "Cl.Cl.Cn1cc(NC(=O)c2cc(NC(=O)c3ccc(C(=O)Nc4cc(C(=O)Nc5cc(C(=O)NCCC(=N)N)n(C)c5)n(C)c4)cc3)cn2C)cc1C(=O)NCCC(=N)N", "note": "[Compound 19b, N,N'-di[1-methyl-2-[1-methyl-2-carboxamido(3-propionamidine)-4-pyrrole]-4-pyrrolyl] terephthalamide dihydrochloride]", "values": [
      {"measurement": "Kapp", "setting": "poly(dA-dT)", "result": "4.3e+07", "unit": "M⁻¹"},
      {"measurement": "[…] % of Control", "setting": "[1]", "result": "192.17 % of Control"},
      {"measurement": "IC50", "setting": "[1]; Table XI", "result": 17.9, "unit": "µM"},
      {"measurement": "[…] % of Control", "setting": "[1]; dose 1.79 × 10^-6 Molar, Table VI", "result": "136.50 % of Control"},
      {"measurement": "[…] % of Control", "setting": "[1]; dose 1.79 × 10^-7 Molar, Table VI", "result": "92.72 % of Control"},
      {"measurement": "[…] % of Control", "setting": "[1]; dose 1.79 × 10^-8 Molar, Table VI", "result": "92.56 % of Control"},
      {"measurement": "[…] % of Control", "setting": "[1]; dose 5.66 × 10^-6 Molar, Table VI", "result": "164.46 % of Control"},
      {"measurement": "[…] % of Control", "setting": "[1]; dose 5.67 × 10^-7 Molar, Table VI", "result": "88.21 % of Control"},
      {"measurement": "[…] % of Control", "setting": "[1]; dose 5.68 × 10^-8 Molar, Table VI", "result": "94.69 % of Control"},
      {"measurement": "[…] % of Control", "setting": "[1]; dose 5.68 × 10^-9 Molar, Table VI", "result": "68.62 % of Control"},
      {"measurement": "IC50", "setting": "[1]; uninfected CEM cells, 6 days, XTT, Tables VI-X", "result": "> 1.79 × 10^-5 Molar"},
      {"measurement": "pEC50", "setting": "HIV-1; [3]", "result": 5.68},
      {"measurement": "pEC50", "setting": "HIV-1; Table XI", "result": 5.92},
      {"measurement": "INFECTED RESPONSE % of Control", "setting": "HIV-1; dose 1.79 × 10^-5 Molar", "result": "167.25 % of Control"},
      {"measurement": "INFECTED RESPONSE % of Control", "setting": "HIV-1; dose 1.79 × 10^-6 Molar", "result": "51.73 % of Control"},
      {"measurement": "INFECTED RESPONSE % of Control", "setting": "HIV-1; dose 1.79 × 10^-7 Molar", "result": "29.97 % of Control"},
      {"measurement": "INFECTED RESPONSE % of Control", "setting": "HIV-1; dose 1.79 × 10^-8 Molar", "result": "33.00 % of Control"},
      {"measurement": "INFECTED RESPONSE % of Control", "setting": "HIV-1; dose 5.66 × 10^-6 Molar", "result": "134.54 % of Control"},
      {"measurement": "INFECTED RESPONSE % of Control", "setting": "HIV-1; dose 5.67 × 10^-7 Molar", "result": "28.86 % of Control"},
      {"measurement": "INFECTED RESPONSE % of Control", "setting": "HIV-1; dose 5.68 × 10^-8 Molar", "result": "23.70 % of Control"},
      {"measurement": "INFECTED RESPONSE % of Control", "setting": "HIV-1; dose 5.68 × 10^-9 Molar", "result": "39.64 % of Control"}
    ]},
    {"compound": "Cl.Cl.Cn1cc(NC(=O)c2cc(NC(=O)/C=C\\C(=O)Nc3cc(C(=O)Nc4cc(C(=O)NCCC(=N)N)n(C)c4)n(C)c3)cn2C)cc1C(=O)NCCC(=N)N", "note": "[Compound 22b, N,N'-Di(1-methyl-2-carboxamido(3-(proprionamidine-4-pyrrole]-4-pyrrolyl)maleamidedihydrochloride]", "values": [
      {"measurement": "pEC50", "setting": "HIV-1; [3]", "result": 5.39},
      {"measurement": "pEC50", "setting": "HIV-1; Table XI", "result": 6.46}
    ]},
    {"compound": "Cl.Cl.Cn1cc(NC(=O)c2cc(NC(=O)CCCCC(=O)Nc3cc(C(=O)Nc4cc(C(=O)NCCC(=N)N)n(C)c4)n(C)c3)cn2C)cc1C(=O)NCCC(=N)N", "note": "[Compound 7, N,N'-Di(1-methyl-2-[1-methyl-2-carboxamido(3-proprionamidine)-4-pyrrole]-4-pyrrolyl) adipamide dihydrochloride]", "values": [
      {"measurement": "NEUTRAL RED DYE UPTAKE", "setting": "2.2.15 cells; 30 μg/ml", "result": "102 ± 1", "unit": "% OF CONTROL"},
      {"measurement": "NEUTRAL RED DYE UPTAKE", "setting": "2.2.15 cells; 300 μg/ml", "result": "98 ± 2", "unit": "% OF CONTROL"},
      {"measurement": "INT[…] DNA MONO.", "setting": "HBV; 10 μM", "result": "2.1 pg/μg CELL DNA and 2.3 pg/μg CELL DNA and 2.2 pg/μg CELL DNA and 2.6 pg/μg CELL DNA"},
      {"measurement": "HBV VIRION DNA DAY 0", "setting": "HBV; 10 μM, day 0", "result": "75 pg/ml CULTURE MEDIUM and 92 pg/ml CULTURE MEDIUM and 60 pg/ml CULTURE MEDIUM and 55 pg/ml CULTURE MEDIUM"},
      {"measurement": "HBV VIRION DNA DAY 6", "setting": "HBV; 10 μM", "result": "68 pg/ml CULTURE MEDIUM and 67 pg/ml CULTURE MEDIUM and 57 pg/ml CULTURE MEDIUM and 50 pg/ml CULTURE MEDIUM"},
      {"measurement": "HBV VIRION DNA DAY 9", "setting": "HBV; 10 μM", "result": "56 pg/ml CULTURE MEDIUM and 57 pg/ml CULTURE MEDIUM and 87 pg/ml CULTURE MEDIUM and 58 pg/ml CULTURE MEDIUM"},
      {"measurement": "INT[…] DNA MONO.", "setting": "HBV; 50 μM", "result": "2.7 pg/μg CELL DNA and 2.5 pg/μg CELL DNA and 2.3 pg/μg CELL DNA"},
      {"measurement": "HBV VIRION DNA DAY 6", "setting": "HBV; 50 μM", "result": "67 pg/ml CULTURE MEDIUM and 75 pg/ml CULTURE MEDIUM and 83 pg/ml CULTURE MEDIUM and 69 pg/ml CULTURE MEDIUM"},
      {"measurement": "HBV VIRION DNA DAY 9", "setting": "HBV; 50 μM, zero = undetectable, cutoff 0.1 pg/ml", "result": "63 pg/ml CULTURE MEDIUM and 68 pg/ml CULTURE MEDIUM and 77 pg/ml CULTURE MEDIUM and 66 pg/ml CULTURE MEDIUM"},
      {"measurement": "Solubility in H2O", "setting": "[2]", "result": "good"}
    ]}
  ]
}
